38 compounds from US20110195929A1, “COMPOUNDS FOR THE TREATMENT OF FLAVIVIRAL INFECTIONS” (SUMMIT CORPORATION PLC, priority 2008, published 2011) can be followed below.

The test system of the first test is HCV. Nature of the test: Cell-based HCV infection NS3 protease FRET assay in DMSO-Huh7 cells. Further: test concentration or dose not given here. Also noted: species or system hepatitis C virus (HCV).
Conditions: not given
As for `OC[C@@H](O)[C@@H]1NC[C@H](O)[C@@H]1O` [Compound 155, (2S,3R,4S)-2-((S)-1,2-dihydroxyethyl)pyrrolidine-3,4-diol], the Ave % inhibition entry is given as “++ (++: 20-39%)”.

In the case of `CC1(C)O[C@H]2[C@@H](CN=[N+]=[N-])NC[C@H]2O1` [Compound 671, (3aS,4R,6aR)-4-(azidomethyl)-2,2-dimethyltetrahydro-3aH-[1,3]dioxolo[4,5-c]pyrrole], the Ave % inhibition entry is “++ (++: 20-39%)”.

Regarding `C[C@@H]1CC[C@@H]2[C@@H](O)[C@H](O)[C@@H](CO)N12` [Compound 14, (1R,2R,3R,5R,7aR)-3-(hydroxymethyl)-5-methylhexahydro-1H-pyrrolizine-1,2-diol], the Ave % inhibition result was “+ (+: ≦19%)”. Still for that read-out and setting: as for `CCCCCCCCCN1C[C@H](O)[C@@H](O)[C@H](O)[C@H]1CO` [Compound 550, (2R,3R,4R,5S)-2-(hydroxymethyl)-1-nonylpiperidine-3,4,5-triol], the entry is “++ (++: 20-39%)”.

`C[C@H]1C[C@@H](O)[C@@H]2[C@H](O)[C@H](O)[C@@H](CO)N21` [Compound 149, (1S,2R,3R,5S,7R,7aR)-3-(hydroxymethyl)-5-methylhexahydro-1H-pyrrolizine-1,2,7-triol]: the Ave % inhibition result is “++ (++: 20-39%)”.

The test is the same for the next values; noted with them: DMSO-Huh7 cells infected with HCV at 0.05 ffu/cell; HCV NS3 protein levels by FRET, day 6 p.i.
Take `O[C@H]([C@H]1[C@@H](O)[C@H](O)CN1Cc1ccccc1)[C@H](O)CNCc1ccccc1` [Compound 698, (2S,3R,4R)-1-benzyl-2-((1R,2R)-3-(benzylamino)-1,2-dihydroxypropyl)pyrrolidine-3,4-diol]: the Ave % inhibition entry is listed as “++ (++: 20-39%)”.

Take `CCCCN1C[C@H](O)[C@@H](O)[C@H](O)[C@H]1CO` [Compound 118, (2R,3R,4R,5S)-1-butyl-2-(hydroxymethyl)piperidine-3,4,5-triol]: the Ave % inhibition entry was “++ (++: 20-39%)”.

`CCCCCCCCCN1C[C@H](NC(C)=O)[C@@H](O)[C@@H]1CO` [Compound 338, N-((3S,4R,5S)-4-hydroxy-5-(hydroxymethyl)-1-nonylpyrrolidin-3-yl)acetamide]: the Ave % inhibition entry is “++ (++: 20-39%)”. Regarding `O=C(NC[C@H]1[C@@H](O)[C@@H](O)CN1CCN1CCOCC1)c1ccccc1` [Compound 633, N-(((2S,3R,4S)-3,4-dihydroxy-1-(2-morpholinoethyl)pyrrolidin-2-yl)methyl)benzamide], the Ave % inhibition result is reported as “+++ (+++: 40-59%)”. Still for that read-out and setting: as for `CCCC(=O)OC[C@@H]1[C@@H](OC(=O)CCC)[C@H](OC(=O)CCC)[C@H]2[C@H](OC(=O)CCC)[C@@H](OC(=O)CCC)CN21` [Compound 132, (1R,2R,3R,6S,7S,7aR)-3-(butyryloxymethyl)hexahydro-1H-pyrrolizine-1,2,6,7-tetrayl tetrabutyrate], the entry is “++ (++: 20-39%)”; as for `CCCCCCCCCN1C[C@@H](O)[C@@H](O)[C@@H]1[C@@H](O)CO` [Compound 316, (2S,3S,4R)-2-((R)-1,2-dihydroxyethyl)-1-nonylpyrrolidine-3,4-diol], “+++ (+++: 40-59%)”. On the same count and under the same terms, as for `OC[C@H]1N[C@H](CO)[C@@H](O)[C@H](O)[C@H]1O` [Compound 15, (2R,3S,4R,5R,6R)-2,6-bis(hydroxymethyl)piperidine-3,4,5-triol], the entry is “++ (++: 20-39%)”. Take `CC1(C)O[C@H]2[C@H](CN(CCN3CCCCC3)[C@H]2CNC(=O)C(F)(F)F)O1` [Compound 677, N-(((3aR,4S,6aS)-2,2-dimethyl-5-(2-(piperidin-1-yl)ethyl)tetrahydro-3aH-[1,3]dioxolo[4,5-c]pyrrol-4-yl)methyl)-2,2,2-trifluoroacetamide]: the Ave % inhibition entry was “++ (++: 20-39%)”. Same read-out and setting: as for `COCCOCCN1C[C@H](O)[C@H](O)[C@@H]1CNC(=O)c1ccc(-c2ccccc2)cc1` [Compound 688, N-(((2S,3R,4S)-3,4-dihydroxy-1-(2-(2-methoxyethoxy)ethyl)pyrrolidin-2-yl)methyl)biphenyl-4-carboxamide], the entry is “+++ (+++: 40-59%)”; as for `O=C(NC[C@@H]1[C@@H](O)[C@@H](O)CN1Cc1ccc(-c2ccccc2)cc1)c1ccccc1` [Compound 649, N-(((2R,3R,4S)-1-(biphenyl-4-ylmethyl)-3,4-dihydroxypyrrolidin-2-yl)methyl)benzamide], “+++ (+++: 40-59%)”. On the same count and under the same terms, the entry for `OC[C@@H]1[C@@H](O)[C@H](O)[C@@H](CO)N1Cc1ccc(-c2ccccc2)cc1` [Compound 558, (2R,3R,4R,5R)-1-(biphenyl-4-ylmethyl)-2,5-bis(hydroxymethyl)pyrrolidine-3,4-diol] is “+++ (+++: 40-59%)”.

Consider `C[C@H](N)CCC[C@@H]1N[C@@H](CO)[C@H](O)[C@H]1O` [Compound 562, (2S,3S,4S,5S)-2-((S)-4-aminopentyl)-5-(hydroxymethyl)pyrrolidine-3,4-diol], for which the Ave % inhibition result is “++++ (++++: 60-79%)”. On the same count and under the same terms, as for `O=C(O)CCCN1C[C@@H](O)[C@H](O)[C@H]1CO` [Compound 499, 4-[(2R,3R,4R)-3,4-dihydroxy-2-(hydroxymethyl)pyrrolidin-1-yl]butanoic acid], the entry is “++ (++: 20-39%)”. Same read-out and setting: the entry for `CCCCCCCCCN1C[C@@H](NC(C)=O)C[C@H]1CO` [Compound 348, N-((3S,5S)-5-(hydroxymethyl)-1-nonylpyrrolidin-3-yl)acetamide] is “++++ (++++: 60-79%)”; for `COC(=O)[C@H]1C[C@H](O)CN1C(=O)OC(C)(C)C` [Compound 713, (2R,4S)-1-tert-butyl 2-methyl 4-hydroxypyrrolidine-1,2-dicarboxylate] it is “++ (++: 20-39%)”.

Take `O=C(NC[C@@H]1NC[C@H](O)[C@@H]1O)c1ccc(-c2ccccc2)cc1` [Compound 670, N-(((2S,3R,4S)-3,4-dihydroxypyrrolidin-2-yl)methyl)biphenyl-4-carboxamide]: the Ave % inhibition entry is “+++++ (+++++: ≧80%)”. In the case of `CCCCCCCCCN1C[C@@H](O)[C@H](NC(C)=O)[C@@H](O)C1` [Compound 789, N-((3S,4r,5R)-3,5-dihydroxy-1-nonylpiperidin-4-yl)acetamide], the Ave % inhibition entry is “+++ (+++: 40-59%)”. Same read-out and setting: as for “(3R,5S)-5-(acetamidomethyl)-1-butylpyrrolidin-3-yl acetate [Compound 546]”, the entry is “++ (++: 20-39%)”; as for `CC1(C)O[C@H]2[C@H](CN(Cc3ccccc3)[C@H]2CNC(=O)c2ccc(-c3ccccc3)cc2)O1` [Compound 652, N-(((3aR,4S,6aS)-5-benzyl-2,2-dimethyltetrahydro-3aH-[1,3]dioxolo[4,5-c]pyrrol-4-yl)methyl)biphenyl-4-carboxamide], “+++++ (+++++: ≧80%)”; as for `CCCC(=O)NC[C@@H]1[C@@H](O)[C@@H](O)CN1Cc1ccccc1` [Compound 669, N-(((2R,3R,4S)-1-benzyl-3,4-dihydroxypyrrolidin-2-yl)methyl)butyramide], “++ (++: 20-39%)”. Still for that read-out and setting: as for `CCCCCCCCCN1C[C@@H](O)[C@@H](O)[C@H](NC(C)=O)C1` [Compound 731, N-((3R,4S,5R)-4,5-dihydroxy-1-nonylpiperidin-3-yl)acetamide], the entry is “++ (++: 20-39%)”; as for `CN(C)CCN1C[C@@H]2OC(C)(C)O[C@@H]2[C@@H]1CNC(=O)C(F)(F)F` [Compound 678, N-(((3aR,4S,6aS)-5-(2-(dimethylamino)ethyl)-2,2-dimethyltetrahydro-3aH-[1,3]dioxolo[4,5-c]pyrrol-4-yl)methyl)-2,2,2-trifluoroacetamide], “++ (++: 20-39%)”; as for `CCCCCCCCCN1C[C@H](O)C(NC(C)=O)[C@@H](O)C1` [Compound 777, N-((3S,5S)-3,5-dihydroxy-1-nonylpiperidin-4-yl)acetamide], “+++ (+++: 40-59%)”. On the same count and under the same terms, the entry for `CC1(C)O[C@H]2[C@H](CN(Cc3ccccc3)[C@@H]2CN)O1` [Compound 483, ((3aR,4R,6aS)-5-benzyl-2,2-dimethyltetrahydro-3aH-[1,3]dioxolo[4,5-c]pyrrol-4-yl)methanamine] is “++ (++: 20-39%)”; for `CCCCCCCCCN1C[C@H](O)[C@H](O)[C@@H]1CNC(C)=O` [Compound 587, N-(((2S,3R,4S)-3,4-dihydroxy-1-nonylpyrrolidin-2-yl)methyl)acetamide] it is “+++ (+++: 40-59%)”; for `CCCCN1C[C@H](O)[C@H](O)[C@@H]1CO` [Compound 162, (2S,3R,4S)-1-butyl-2-(hydroxymethyl)pyrrolidine-3,4-diol] it is “++ (++: 20-39%)”. With “((2S,4S)-4-acetamido-1-nonylpyrrolidin-2-yl)methyl acetate [Compound 332]”, the Ave % inhibition result was “+++++ (+++++: ≧80%)”. On the same count and under the same terms, as for `OC[C@@H](O)[C@@H]1[C@H](O)[C@H](O)CN1Cc1ccccc1` [Compound 799, (2R,3S,4R)-1-benzyl-2-((S)-1,2-dihydroxyethyl)pyrrolidine-3,4-diol], the entry is “+ (+: ≦19%)”; as for `O=C(NC[C@@H]1NC[C@H](O)[C@@H]1O)C(F)(F)F` [Compound 674, N-(((2S,3R,4S)-3,4-dihydroxypyrrolidin-2-yl)methyl)-2,2,2-trifluoroacetamide], “++ (++: 20-39%)”. Still for that read-out and setting: the entry for `[N-]=[N+]=N[C@@H]1CN[C@@H](CO)C1` [Compound 767, ((2R,4S)-4-azidopyrrolidin-2-yl)methanol] is “++++ (++++: 60-79%)”; for `CC(=O)NC[C@H]1[C@@H](O)[C@@H](O)CN1CCN1CCCCC1` [Compound 616, N-(((2S,3R,4S)-3,4-dihydroxy-1-(2-(piperidin-1-yl)ethyl)pyrrolidin-2-yl)methyl)acetamide] it is “++ (++: 20-39%)”; for `CCCCN1C[C@@H]2OC(C)(C)O[C@@H]2[C@@H]1CNC(=O)C(F)(F)F` [Compound 676, N-(((3aR,4S,6aS)-5-butyl-2,2-dimethyltetrahydro-3aH-[1,3]dioxolo[4,5-c]pyrrol-4-yl)methyl)-2,2,2-trifluoroacetamide] it is “++ (++: 20-39%)”.

Take `[N-]=[N+]=NC[C@H]1[C@@H](O)[C@@H](O)CN1Cc1ccccc1` [Compound 506, (2S,3R,4S)-2-(azidomethyl)-1-benzylpyrrolidine-3,4-diol]: the Ave % inhibition result is recorded as “+++ (+++: 40-59%)”.
